Experimental data taken from patent US20070213283A1, “Macrolides substituted at the 4"-position” (priority 2003, published 2007).
Structures can show the parent of a compound that is named as a salt.

Tests used:
Test in all cases: MIC, standard broth dilution method in microtitre
Format in all cases: cell-based
[1] = tested on: E. faecalis ATCC 29212; conditions: Enterococcus faecalis, ATCC29212
Experimental: (§1) Using a standard broth dilution method in microtitre, compounds were tested for antibacterial activity. The compounds in the above examples gave minimum inhibitory concentrations (MICs) less than 1 microgram per millilitre against erythromycin-sensitive and erythromycin-resistant strains of Streptococcus pneumoniae and Streptococcus pyogenes.
(§2) In addition, the MIC (μg/mL) of test compounds against various organisms was determined including:
(§3) S. aureus Smith ATCC 13709, S. pneumoniae SP030, S. pyogenes 3565, E. faecalis ATCC 29212, H. influenzae ATCC 49247, M. catarrhalis ATCC 23246.

[2] = tested on: S. pyogenes 3565; conditions: Streptococcus pyogenes
Experimental: as §1, §2, §3

[3] = tested on: S. pneumoniae SP030; conditions: Streptococcus pneumoniae
Experimental: as §1, §2, §3

[4] = tested on: S. aureus Smith ATCC 13709; conditions: Staphylococcus aureus, ATCC13709
Experimental: as §1, §2, §3

[5] = tested on: M. catarrhalis ATCC 23246; conditions: Moraxella catarrhalis, ATCC23246
Experimental: as §1, §2, §3

[6] = tested on: H. influenzae ATCC 49247; conditions: Haemophilus influenzae, ATCC49247; H. influenzae ATCC 49247; broth dilution in microtitre; read-out: MIC
Experimental: as §1, §2, §3

| SMILES | MIC [1] [µg/mL] | MIC [2] [µg/mL] | MIC [3] [µg/mL] | MIC [4] [µg/mL] | MIC [5] [µg/mL] | MIC [6] [µg/mL] |
| --- | --- | --- | --- | --- | --- | --- |
| CC[C@@H]1OC(=O)[C@H](C)[C@H](O[C@@H]2C[C@](C)(OC)[C@H](OC(=O)CCNCCOc3cc4c5c(c3)c(=O)c(C(=O)O)cn5CCC4)[C@H](C)O2)[C@@H](C)[C@H](O[C@@H]2O[C@H](C)C[C@H](N(C)C)[C@@H]2O)[C@](C)(O)C[C@H](C)CN(C)[C@H](C)[C@@H](O)[C@]1(C)O [Example 12, 4″-O-{3-[2-(6-Carboxy-7-oxo-2,3-dihydro-1H,7H-pyrido[3,2,1-ij]quinolin-9-yloxy)ethylamino]propionyl}-azithromycin tris trifluoroacetate salt] | ≤ 1 | ≤ 1 | ≤ 1 | ≤ 1 | – | – |
| CC[C@H]1OC(=O)[C@H](C)[C@@H](O[C@H]2C[C@@](C)(OC)[C@@H](OC(=O)CCOCCOc3ccc4c(c3)c(=O)c(C(=O)O)cn4C3CC3)[C@H](C)O2)[C@H](C)[C@@H](O[C@@H]2O[C@H](C)C[C@H](N(C)C)[C@H]2O)[C@](C)(O)C[C@@H](C)CN(C)[C@H](C)[C@H]2OC(=O)O[C@@]21C [Example 26, 4″-O-{3-[2-(3-Carboxy-1-cyclopropyl-4-oxo-1,4-dihydro-quinolin-6-yloxy)-ethoxy]-propionyl}-azithromycin11,12-carbonate] | ≤ 1 | ≤ 1 | ≤ 1 | ≤ 1 | ≤ 2 | ≤ 2 |
| CC[C@H]1OC(=O)[C@H](C)[C@@H](O[C@H]2C[C@@](C)(OC)[C@@H](OC(=O)CCOCCNc3cc4c(=O)c(C(=O)O)cn(C5CC5)c4cc3Cl)[C@H](C)O2)[C@H](C)[C@@H](O[C@@H]2O[C@H](C)C[C@H](N(C)C)[C@H]2O)[C@](C)(OC)C[C@@H](C)C(=O)[C@H](C)[C@@H](O)[C@]1(C)O [Example 36, 4″-O-{3-[2-(3-Carboxy-7-chloro-1-cyclopropyl-4-oxo-1,4-dihydro-quinolin-6-ylamino)ethoxy]propionyl}-6-O-methyl-erythromycin A] | ≤ 1 | ≤ 1 | ≤ 1 | ≤ 1 | – | – |
| CC[C@@H]1OC(=O)[C@H](C)[C@H](O[C@@H]2C[C@](C)(OC)[C@H](OC(=O)CCNCCSc3ccc4c(c3)c(=O)c(C(=O)O)cn4CC)[C@H](C)O2)[C@@H](C)[C@H](O[C@@H]2O[C@H](C)C[C@H](N(C)C)[C@@H]2O)[C@](C)(O)C[C@H](C)CN(C)[C@H](C)[C@@H](O)[C@]1(C)O [Example 10, 4″-O-{3-[2-(3-Carboxy-1-ethyl-4-oxo-1,4-dihydro-6-quinolinysulfanyl)ethylamino]propionyl}-azithromycin] | ≤ 1 | ≤ 1 | ≤ 1 | ≤ 1 | – | – |
| CC[C@@H]1OC(=O)[C@H](C)[C@@H](O[C@H]2C[C@@](C)(OC)[C@@H](OC(=O)CCNCCSc3ccc4c(=O)c(C(=O)O)cn(CC)c4c3)[C@@H](C)O2)[C@@H](C)[C@H](O[C@H]2O[C@@H](C)C[C@@H](N(C)C)[C@H]2O)[C@](C)(O)C[C@H](C)CN(C)[C@H](C)[C@H]2OC(=O)O[C@]12C [Example 2, 4″-O-{3-[2-(3-Carboxy-1-ethyl-4-oxo-1,4-dihydro-7-quinolinylsulfanyl)ethylamino]propionyl}-azithromycin-11,12-carbonate] | ≤ 1 | ≤ 1 | ≤ 1 | ≤ 1 | ≤ 2 | ≤ 2 |
| CC[C@H]1OC(=O)[C@H](C)[C@@H](O[C@H]2C[C@@](C)(OC)[C@@H](OC(=O)CCOCCOc3cc4c(=O)c(C(=O)O)cn(C5CC5)c4cc3Cl)[C@H](C)O2)[C@H](C)[C@@H](O[C@@H]2O[C@H](C)C[C@H](N(C)C)[C@H]2O)[C@](C)(O)C[C@@H](C)CN(C)[C@H](C)[C@H]2OC(=O)O[C@@]21C [Example 25, 4″-O-{3-[2-(3-Carboxy-7-chloro-1-cyclopropyl-4-oxo-1,4-dihydro-quinolin-6-yloxy)-ethoxy]-propionyl}-azithromycin11,12-carbonate] | ≤ 1 | ≤ 1 | ≤ 1 | ≤ 1 | – | – |
| CC[C@H]1OC(=O)[C@H](C)[C@@H](OC2C[C@@](C)(OC)[C@@H](OC(=O)CCOCCOc3ccc4c(c3)c(=O)c(C(=O)O)cn4C3CC3)[C@H](C)O2)[C@H](C)[C@@H](OC2O[C@H](C)C[C@H](N(C)C)[C@H]2O)[C@](C)(O)C[C@@H](C)CN(C)[C@H](C)[C@@H](OC)[C@]1(C)O (some centres unmarked) [Example 35, 4″-O-{3-[2-(3-Carboxy-1-cyclopropyl-4-oxo-1,4-dihydro-quinolin-6-yloxy)-ethoxy]-propionyl}-11-O-methyl-azithromycin] | ≤ 1 | ≤ 1 | ≤ 1 | ≤ 1 | ≤ 2 | ≤ 2 |
| CC[C@@H]1OC(=O)[C@H](C)[C@H](O[C@@H]2C[C@](C)(OC)[C@H](OC(=O)CCNCCOc3ccc4c(c3)c(=O)c(C(=O)O)cn4CC)[C@H](C)O2)[C@@H](C)[C@H](O[C@@H]2O[C@H](C)C[C@H](N(C)C)[C@@H]2O)[C@](C)(O)C[C@H](C)CN(C)[C@H](C)[C@@H](O)[C@]1(C)O [Example 14, 4″-O-{3-[2-(3-Carboxy-1-ethyl-4-oxo-1,4-dihydro-6-quinolinyloxy)ethylamino]propionyl}-azithromycin tris trifluoroacetate salt] | ≤ 1 | ≤ 1 | ≤ 1 | ≤ 1 | – | – |
| CC[C@H]1OC(=O)[C@H](C)[C@@H](O[C@H]2C[C@@](C)(OC)[C@@H](OC(=O)CCOCCNc3cc4c(cc3F)c(=O)c(C(=O)O)cn4C3CC3)[C@H](C)O2)[C@H](C)[C@@H](O[C@@H]2O[C@H](C)C[C@H](N(C)C)[C@H]2O)[C@](C)(O)C[C@@H](C)CN(C)[C@H](C)[C@@H](O)[C@]1(C)O [Example 40, 4″-O-{3-[2-(3-Carboxy-1-cyclopropyl-6-fluoro-4-oxo-1,4-dihydro-quinolin-7-ylamino)ethoxy]propionyl}-azithromycin] | ≤ 1 | ≤ 1 | ≤ 1 | ≤ 1 | ≤ 2 | ≤ 2 |
| CC[C@H]1OC(=O)[C@H](C)[C@@H](O[C@H]2C[C@@](C)(OC)[C@@H](OC(=O)CCNCCSc3ccc4c(=O)c(C(=O)O)cn(CC)c4c3)[C@H](C)O2)[C@@H](C)[C@@H](O[C@@H]2O[C@H](C)C[C@H](N(C)C)[C@H]2O)[C@](C)(O)C[C@@H](C)CN(C)[C@H](C)[C@@H](O)[C@]1(C)O [Example 1, 4″-O-{3-[2-(3-Carboxy-1-ethyl-4-oxo-1,4-dihydro-7-quinolinylsulfanyl)ethylamino]propionyl}-azithromycin] | ≤ 1 | ≤ 1 | ≤ 1 | ≤ 1 | ≤ 2 | ≤ 2 |
| CC[C@@H]1OC(=O)[C@H](C)[C@H](O[C@H]2C[C@](C)(OC)[C@@H](OC(=O)CCNCCSc3cnc4c(c3)c(=O)c(C(=O)O)cn4CC)[C@@H](C)O2)[C@@H](C)[C@H](O[C@H]2O[C@@H](C)C[C@@H](N(C)C)[C@H]2O)[C@@](C)(O)C[C@H](C)CN(C)[C@H](C)[C@@H](O)[C@@]1(C)O [Example 4, 4″-O-{3-[2-(3-Carboxy-1-ethyl-4-oxo-1,4-dihydro-[1,8]naphthyridin-6-ylsulfanyl)ethylamino]propionyl}-azithromycin tris trifluoroacetate salt] | ≤ 1 | ≤ 1 | ≤ 1 | ≤ 1 | ≤ 2 | ≤ 2 |
| CC[C@@H]1OC(=O)[C@H](C)[C@H](O[C@H]2C[C@@](C)(OC)[C@@H](OC(=O)CCNCCSc3ccc4c(=O)c(C(=O)O)cn(CC)c4c3)[C@@H](C)O2)[C@@H](C)[C@H](OC2O[C@@H](C)C[C@@H](N(C)C)[C@H]2O)[C@@](C)(OC)C[C@H](C)C(=O)[C@H](C)[C@@H](O)[C@]1(C)O (some centres unmarked) [Example 3, 4″-O-{3-[2-(3-Carboxy-1-ethyl-4-oxo-1,4-dihydro-7-quinolinylsulfanyl)ethylamino]propionyl}-6-O-methyl-erythromycin A] | – | – | – | – | ≤ 2 | ≤ 2 |
| CC[C@@H]1OC(=O)[C@H](C)[C@H](O[C@@H]2C[C@@](C)(OC)[C@H](OC(=O)CCOCCOc3cc4c(=O)c(C(=O)O)cn(C5CC5)c4cc3Cl)[C@H](C)O2)[C@@H](C)[C@H](O[C@@H]2O[C@H](C)C[C@H](N(C)C)[C@@H]2O)[C@@](C)(OC)C[C@H](C)C(=O)[C@H](C)[C@@H](O)[C@]1(C)O [Example 37, 4″-O-{3-[2-(3-Carboxy-7-chloro-1 cyclopropyl-4-oxo-1,4-dihydro-quinolin-6-yloxy)ethoxy]propionyl}-6-O-methyl-erythromycin A] | ≤ 1 | ≤ 1 | ≤ 1 | ≤ 1 | – | – |
| CC[C@H]1OC(=O)[C@H](C)[C@@H](OC2C[C@@](C)(OC)[C@@H](OC(=O)CCOCCOc3cc4c(=O)c(C(=O)O)cn(C5CC5)c4cc3Cl)[C@H](C)O2)[C@H](C)[C@@H](O[C@@H]2O[C@H](C)C[C@H](N(C)C)[C@H]2O)[C@](C)(O)C[C@@H](C)CN(C)[C@H](C)[C@@H](OC)[C@]1(C)O (some centres unmarked) [Example 34, 4″-O-{3-[2-(3-Carboxy-7-chloro-1-cyclopropyl-4-oxo-1,4-dihydro-quinolin-6-yloxy)-ethoxy]-propionyl}-11-O-methyl-azithromycin] | ≤ 1 | ≤ 1 | ≤ 1 | ≤ 1 | ≤ 2 | ≤ 2 |
